Data taken from ChEMBL document CHEMBL1201862, “PubChem BioAssay data set” (2004).
The source made the active and inactive calls. Non-standard residues stand in square brackets, D forms with d. Residues, ends and D or L forms follow the SMILES beside them. ξ: configuration not given here. *: point of attachment. X18 = COC1=CC(=O)N(C(=O)C(O*)C(C)C)C1Cc1ccccc1; ξNMe2Val = CC(C)C(C(=O)*)N(C)C; NMeV = CN[CH](C(=O)O)C(C)C

What was measured:
[1] = molecular target: Glucose-6-phosphate 1-dehydrogenase (Homo sapiens, UniProt P11413); assay: human G6PD enzyme inhibitors, dose response, selectivity assay for P. falciparum G6PD inhibitor project, biochemical, fluorescence (AID 504792); type: functional
Sequence of Glucose-6-phosphate 1-dehydrogenase (P11413 whole entry): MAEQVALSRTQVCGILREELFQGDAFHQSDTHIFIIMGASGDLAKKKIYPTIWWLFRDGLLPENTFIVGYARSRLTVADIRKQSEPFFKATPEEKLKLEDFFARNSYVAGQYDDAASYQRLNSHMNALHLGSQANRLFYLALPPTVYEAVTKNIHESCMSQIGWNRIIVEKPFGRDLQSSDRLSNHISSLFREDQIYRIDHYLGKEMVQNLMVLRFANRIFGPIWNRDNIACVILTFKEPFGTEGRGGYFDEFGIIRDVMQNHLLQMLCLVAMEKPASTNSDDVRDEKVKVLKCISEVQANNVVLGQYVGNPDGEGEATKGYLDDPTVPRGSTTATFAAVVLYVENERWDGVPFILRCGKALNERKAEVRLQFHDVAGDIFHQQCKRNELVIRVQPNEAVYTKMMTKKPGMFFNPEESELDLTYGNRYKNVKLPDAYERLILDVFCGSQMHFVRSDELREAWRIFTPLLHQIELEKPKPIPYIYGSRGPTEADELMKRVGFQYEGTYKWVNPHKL

[2] = HEp-2 cell cytotoxicity, dose response, cytotoxicity control for RSV inhibitor project, HTS (AID 2410); type: functional; settings: human respiratory syncytial virus
Vero [3] = assay: cells; type: functional, cell-based; settings: Chlorocebus sabaeus
cells [4] = assay: cells
[5] = molecular target: T1, High affinity choline transporter 1 (Homo sapiens, UniProt Q9GZV3); assay: CHT inhibitors, dose response, cell-based, 5-point CRC, membrane potential dye (AID 504840); type: functional
T1 sequence (Q9GZV3 whole entry): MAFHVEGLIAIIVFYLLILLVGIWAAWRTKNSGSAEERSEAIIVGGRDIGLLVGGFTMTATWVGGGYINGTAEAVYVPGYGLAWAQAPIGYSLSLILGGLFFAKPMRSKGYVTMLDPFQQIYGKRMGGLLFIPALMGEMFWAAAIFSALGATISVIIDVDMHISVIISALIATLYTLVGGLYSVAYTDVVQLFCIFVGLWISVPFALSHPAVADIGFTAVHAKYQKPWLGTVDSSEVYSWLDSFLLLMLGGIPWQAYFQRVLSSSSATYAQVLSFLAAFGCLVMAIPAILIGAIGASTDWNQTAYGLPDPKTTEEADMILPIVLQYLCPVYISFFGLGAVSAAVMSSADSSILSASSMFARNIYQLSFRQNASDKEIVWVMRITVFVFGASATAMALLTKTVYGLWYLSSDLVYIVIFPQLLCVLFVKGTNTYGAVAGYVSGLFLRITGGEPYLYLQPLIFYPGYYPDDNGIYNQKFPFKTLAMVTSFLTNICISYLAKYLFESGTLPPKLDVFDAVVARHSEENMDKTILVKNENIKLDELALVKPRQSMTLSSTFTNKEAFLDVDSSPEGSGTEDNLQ

[6] = inhibitors of HIV Env-driven cell fusion, dose response, cherry-pick (AID 652057); type: functional, cell-based
[7] = CEM21 lymphoblast cell cytotoxicity, dose response, cytotoxicity control for viral fusion inhibitor project, CellTiter-Glo luminescence, cherry-picked (AID 652042); type: functional, cell-based;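 further: potency for signal decrease meaning cytotoxicity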
[8] = ZM109 Env clade C HIV-1 fusion inhibitors, dose response, HeLa effector, CEM target cells, luciferase, cherry-pick (AID 652058); type: functional, cell-based
[9] = off-target signal loss in HeLa-CEM21 co-culture – HeLa F-luc CTL cells, cherry-picked, counter-screen for HIV-1 Env fusion inhibitor project, dose response (AID 652040); type: functional, cell-based;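 further: potency for signal decrease marking cytotoxic or nonspecific inhibition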
cells [10] = type: functional
Escherichia coli = assay: microbe, parasite or virus in culture
[11] = inhibitors of clade B AD8 Env fusion, dose response, cell-based, cherry-pick (AID 652062); type: functional;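 further: luciferase signal from cell-cell fusion driven by HIV-1 clade B AD8 Env; potency is for inhibitors of fusion seen as a drop in luminescence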
[12] = Shn3 3'UTR reporter inhibitors, dose response, cell-based, Clone20 osteoblasts, firefly luciferase, cherry-picked (AID 624132); type: functional;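 further: firefly luciferase luminescence from reporter carrying the Shn3 3'UTR in osteoblasts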
[13] = HepG2 cell cytotoxicity, dose response, cytotoxicity control for Shn3 inhibitor project, CellTiter-Glo, cherry-picked (AID 624134); type: functional, cell-based
[14] = control 3'UTR Renilla luciferase suppression, dose response, counter-screen for Shn3 inhibitor project, cell-based, Clone20-Shn3RL, cherry-picked (AID 624133); type: functional
P388/ADR = assay: cells; type: functional; settings: Mus musculus
SN12K1 = assay: cells; type: functional; settings: Homo sapiens
P388 = assay: cells; type: functional; settings: Mus musculus
[15] = HepG2 cell cytotoxicity, dose response, cytotoxicity control, plate reader, cherry-pick, antagonist series (AID 743416); type: functional, cell-based
[16] = LGR2 antagonists, dose response, cell-based, HEK293, CRE-luciferase reporter, cherry pick, set 2 (AID 743343); type: functional;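 further: transfected cells were stimulated with diluted bursicon conditioned medium after compound addition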
[17] = MC4R antagonists, dose response, counter-screen for LGR2 antagonist project, cell-based, plate reader, cherry pick (AID 743444); type: functional;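 further: transfected HEK 293 cells stimulated with alpha-MSH peptide; potency of inhibitors of the alpha-MSH evoked signal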
[18] = A549 cell cytotoxicity, dose response, cytotoxicity control, plate reader, cherry-pick, antagonist series (AID 743412); type: functional, cell-based
[19] = HEK293 cell cytotoxicity, dose response, cytotoxicity control, plate reader, cherry-picked samples (AID 743446); type: functional, cell-based
[20] = intracellular Trypanosoma cruzi inhibitors in host cells – cell-based, plate reader, cherry-pick samples, set 3, dose response (AID 651818); type: functional;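 further: compounds incubated with infected cells for about four days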
BJ [21] = assay: cytotoxicity toward BJ-TERT fibroblasts, dose response, cell-based, RAS-independent, luminescence (AID 1933); type: functional; settings: Homo sapiens
BJ [22] = assay: cells; type: functional, cell-based; settings: Homo sapiens
BJ [23] = assay: cytotoxicity toward BJ-TERT-LT-ST fibroblasts, dose response, cell-based, RAS-independent, luminescence (AID 1935); type: functional; settings: Homo sapiens;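 further: BJ fibroblasts immortalized with TERT plus LT and ST oncogenes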
[24] = cytotoxicity toward DRD oncogenic fibroblasts, dose response, cell-based, non-viral oncogenic, luminescence (AID 1934); type: functional; settings: Homo sapiens
Vero [25] = assay: cells; type: functional; settings: Chlorocebus sabaeus
Genome polyprotein = Genome polyprotein (dengue virus type 2, UniProt P29990); assay: Dengue-2 NS5 methyltransferase inhibitors, primary screen, biochemical, confirmation dose response (AID 588689); type: functional
Sequence of Genome polyprotein (P29990 2492-3391 limits assumed): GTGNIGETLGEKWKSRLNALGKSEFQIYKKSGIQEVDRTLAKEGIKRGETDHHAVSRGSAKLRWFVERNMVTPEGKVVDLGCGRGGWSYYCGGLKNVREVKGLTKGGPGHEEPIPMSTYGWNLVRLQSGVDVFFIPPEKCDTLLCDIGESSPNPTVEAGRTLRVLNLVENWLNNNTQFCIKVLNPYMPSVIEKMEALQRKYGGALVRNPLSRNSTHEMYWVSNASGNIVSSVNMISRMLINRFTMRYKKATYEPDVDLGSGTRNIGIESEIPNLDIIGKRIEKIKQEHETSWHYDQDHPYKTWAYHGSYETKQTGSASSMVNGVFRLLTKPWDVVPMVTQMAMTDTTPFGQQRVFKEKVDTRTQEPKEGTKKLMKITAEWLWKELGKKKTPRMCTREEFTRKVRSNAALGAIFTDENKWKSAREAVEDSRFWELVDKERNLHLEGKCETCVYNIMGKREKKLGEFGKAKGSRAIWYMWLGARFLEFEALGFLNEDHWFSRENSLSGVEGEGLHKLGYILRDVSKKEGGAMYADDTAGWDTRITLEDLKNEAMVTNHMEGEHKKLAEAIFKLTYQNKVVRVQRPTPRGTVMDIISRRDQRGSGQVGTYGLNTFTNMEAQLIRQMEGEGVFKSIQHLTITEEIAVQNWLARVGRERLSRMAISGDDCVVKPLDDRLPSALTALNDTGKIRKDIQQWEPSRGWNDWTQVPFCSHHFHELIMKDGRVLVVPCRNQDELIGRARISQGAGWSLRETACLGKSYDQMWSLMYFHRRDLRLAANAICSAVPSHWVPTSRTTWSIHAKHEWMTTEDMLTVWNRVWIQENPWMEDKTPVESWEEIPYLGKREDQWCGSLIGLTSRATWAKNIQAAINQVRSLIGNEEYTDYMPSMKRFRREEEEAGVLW

Paired box protein Pax-8 = Paired box protein Pax-8 (Homo sapiens, UniProt Q06710); assay: inhibitors of PAX8-driven TPO luciferase reporter, dose response, RMG-I cells, cherry-pick (AID 687027); type: functional, cell-based;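 further: luciferase reporter driven by Pax8 target thyroperoxidase promoter measured by SteadyGlo luminescence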
Sequence of Paired box protein Pax-8 (Q06710 whole entry): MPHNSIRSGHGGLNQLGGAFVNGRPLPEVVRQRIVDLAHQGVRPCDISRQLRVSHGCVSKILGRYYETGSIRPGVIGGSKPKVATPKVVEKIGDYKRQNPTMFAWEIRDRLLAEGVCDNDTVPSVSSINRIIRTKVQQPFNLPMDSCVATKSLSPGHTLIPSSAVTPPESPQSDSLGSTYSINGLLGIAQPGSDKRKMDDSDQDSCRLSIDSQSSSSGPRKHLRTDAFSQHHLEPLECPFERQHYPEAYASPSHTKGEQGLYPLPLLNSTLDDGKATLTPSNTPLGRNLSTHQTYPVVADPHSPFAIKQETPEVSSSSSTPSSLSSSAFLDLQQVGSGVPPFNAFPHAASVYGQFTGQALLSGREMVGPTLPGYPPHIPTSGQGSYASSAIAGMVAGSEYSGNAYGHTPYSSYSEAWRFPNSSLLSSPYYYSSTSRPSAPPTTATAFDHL

[26] = cytotoxicity in OVCAR8 ovarian cancer cells, dose response, PAX8 project, cell-based, plate reader, dry powder samples (AID 743197); type: functional; settings: OVCAR-8

Cc1ccc(C(=O)NCC(=O)NCC(=O)OCC(=O)c2ccc([N+](=O)[O-])cc2)cc1
IC50 [1]: > 80 µM (inactive)

CC(C)(C)C(=O)Nc1sc(-c2ccccc2)cc1C(=O)O
CC50 [2]: 17.9 µM (active)
IC50 (Vero [3]): 24.1 µM (active)
IC50 (cells [4]): 14.3 µM (active)

O=C(COC(=O)CCCSc1nc2ccccc2[nH]1)NC(=O)NC1CCCC1
IC50 [5]: 7.24 µM (active)

NC(Cc1ccc(F)cc1)c1csc(Nc2ccc(C(F)(F)F)cn2)n1 (stereo not given)
AC50 [6]: 10 µM (active)
AC50 [7]: 9.3 µM (active)
AC50 [8]: 7.7 µM (active)
AC50 [9]: 9.07 µM (active)

COc1cccc(CNC(=O)c2cc3oc4ccccc4c3n2C)c1OC
CC50 [2]: 11.7 µM (active)
IC50 (cells [4]): 4.72 µM (active)

CC(=O)N1CCN(c2cc3c(cc2F)c(=O)c(C(=O)O)cn3C2CC2)CC1
IC50 (cells [10]): 2.11 µM (active)
AC50 (Escherichia coli): 1.06 µM (active)

Nc1ccn(C2OC(CO)C(O)C2F)c(=O)n1 (stereo not given)
AC50 [6]: 16.3 µM (active)
AC50 [7]: 33.2 µM (active)
AC50 [8]: 6.52 µM (active)
AC50 [9]: > 70 µM (inactive)
AC50 [11]: 2.98 µM (active)

CC(=O)Nc1nnc(SCC(=O)c2ccc3c(c2)Cc2ccccc2-3)s1
CC50 [2]: 45.6 µM (active)
IC50 (Vero [3]): 10.9 µM (active)
IC50 (cells [4]): 36 µM (active)

COc1cccc(CN(C)C(=O)c2cccc(S(=O)(=O)N3CCN(c4ccccc4)CC3)c2)c1
AC50 [12]: 64.1 µM (active)
AC50 [13]: > 70 µM (inactive)
AC50 [14]: 12.2 µM (active)

O=C1NC(=O)C2(CCc3ccc(N(CCCl)CCCl)cc32)N1 (stereo not given)
GI50 (P388/ADR): 2.1 µM (inactive)
GI50 (SN12K1): 15 µM (inactive)
GI50 (P388): 1.35 µM (inactive)

CCC(=O)Nc1cc2nn(-c3ccc(OC)cc3)nc2cc1C
AC50 [15]: > 52 µM (inactive)
AC50 [16]: 3.64 µM (active)
AC50 [17]: 2.52 µM (active)

CSCCC(c1nnnn1-c1c(C)cccc1C)N1CCC(n2c(O)nc3ccccc32)CC1 (stereo not given)
AC50 [18]: 18.3 µM (active)
AC50 [15]: 36.5 µM (active)
AC50 [16]: 16.5 µM (active)
AC50 [17]: 20.5 µM (active)
AC50 [19]: 22.4 µM (active)

COC1=CC(=O)N(C(=O)C(OC(=O)C2CCCN2C(=O)C2CCCN2C(=O)C(C(C)C)N(C)C(=O)C(NC(=O)C(C(C)C)N(C)C)C(C)C)C(C)C)C1Cc1ccccc1 (stereo not given) (ξNMe2Val-V[NMeV]PP-X18; configuration not given here)
GI50 (P388/ADR): 0.00748 µM (active)
GI50 (SN12K1): 0.0004 µM (active)
GI50 (P388): 0.0004 µM (active)

Cc1ccc(-c2nn(-c3ccccc3)cc2C2CC(c3cccs3)=NN2C(=O)CCCC(=O)O)cc1 (stereo not given)
CC50 [2]: > 50 µM (active)
IC50 (cells [4]): 36.9 µM (active)

N[C@H](C(=O)O)[C@H]1ON=C(Cl)[C@@H]1O
GI50 (P388/ADR): 2.23 µM (inactive)
GI50 (SN12K1): 1.07 µM (active)
GI50 (P388): 2.17 µM (inactive)

C[C@@H]1CCCCO[C@@H](CN(C)Cc2ccc(C(F)(F)F)cc2)[C@@H](C)CN([C@H](C)CO)C(=O)c2cc(NS(=O)(=O)c3ccc(F)cc3)ccc2O1
AC50 [20]: 5.13 µM (active)

C[C@@H]1CN([C@H](C)CO)C(=O)Cc2cc(NC(=O)Nc3ccc(C(F)(F)F)cc3)ccc2O[C@@H]1CN(C)Cc1ccc(Cl)c(Cl)c1
AC50 [20]: 6.82 µM (active)

CC1C(=O)OC2CC[N+]3(CC(=O)c4ccc(Br)cc4)CC=C(COC(=O)C(C)(O)C1(C)O)C23 (stereo not given)
GI50 (P388/ADR): > 375 µM (inactive)
GI50 (SN12K1): > 375 µM (inactive)
GI50 (P388): > 174 µM (inactive)

Cc1nn(Cc2ccccc2Cl)c(C)c1NC(=O)c1ccn(C)n1
AC50 (Escherichia coli): 19.1 µM (active)

Cc1ccc(-n2c(SCC(=O)Nc3ncc(Cl)cc3Cl)nc3ccccc32)cc1
CC50 [2]: 2.33 µM (active)
EC50 (BJ [21]): 115 µM (active)
EC50 (BJ [22]): 64.6 µM (active)
EC50 (BJ [23]): > 150 µM (not active)
EC50 [24]: 30.6 µM (inconclusive)
IC50 (Vero [3]): 0.72 µM (active)
CC50 (Vero [25]): > 25 µM (active)
IC50 (cells [4]): 1.1 µM (active)

C[C@@H]1CN([C@H](C)CO)C(=O)c2cccc(NC(=O)c3nc4ccccc4s3)c2O[C@@H]1CN(C)Cc1ccc(C(F)(F)F)cc1
AC50 [20]: 5.42 µM (active)

COc1cc(SC)ccc1C(=O)OCC(=O)NC(=O)NC(C)C
AC50 (Escherichia coli): 28.2 µM (active)

CC(=O)NS(=O)(=O)c1ccc(NC(=O)c2cc(-c3cccs3)nc3ccccc23)cc1
AC50 (Escherichia coli): 36.4 µM (active)

C[C@@H]1CN([C@@H](C)CO)C(=O)c2cccc(NC(=O)Nc3ccccc3)c2O[C@H]1CN(C)Cc1ccc(Oc2ccccc2)cc1
AC50 [20]: 2.97 µM (active)

Cc1ccc(C(=O)N/C(=C/c2ccco2)C(=O)Nc2cccc(C)c2)cc1
IC50 [5]: 13.7 µM (active)

Cc1cc(O)c(C(C)C)cc1N=Cc1ccccc1[N+](=O)[O-]
IC50 [1]: > 80 µM (inactive)
IC50 (Genome polyprotein): > 100 µM (active)

COC(=O)C1=C(C)N(Cc2ccccc2)C(=O)N[C@H]1c1ccc(Br)cc1
IC50 (cells [4]): 4.43 µM (active)

Cc1ccc(NC(=O)c2cc(C)n(-c3ccccc3)c2C)cc1
CC50 [2]: 16.9 µM (active)
IC50 [1]: > 80 µM (inactive)

CCCNC(=O)Nc1ccc2c(c1)OC[C@H](C)N(Cc1ccc(-c3ccccn3)cc1)C[C@@H](C)[C@@H](OC)CN(C)C2=O
AC50 (Paired box protein Pax-8): 32.9 µM (active)
AC50 [26]: > 70 µM (inactive)

COC(=O)CCC(=O)OC1(C)C(=O)C2=CN(c3ccc(OC)cc3)C(c3ccc(OC)cc3)=CC2=C(Br)C1=O (stereo not given)
IC50 [1]: 30.1 µM (inactive)

CCNC(=O)c1ccc(NS(=O)(=O)c2ccccc2)cc1
AC50 (Escherichia coli): 27.4 µM (active)

O=C(NC1CCCCC1)C(c1ccc2ncccc2c1)N(Cc1ccc2c(c1)OCO2)C(=O)c1cccs1 (stereo not given)
IC50 [5]: 16.5 µM (active)

COc1ccccc1S(=O)(=O)Cc1ccc(C(=O)N2CCN(c3cccc(Cl)c3)CC2)o1
AC50 [7]: 17.1 µM (active)
AC50 [9]: > 70 µM (inactive)
AC50 [11]: 43 µM (active)

CCOC1=C2[C@H](c3ccccc3)N(S(=O)(=O)c3ccc(C)cc3)[C@H](C(C)C)[C@H]2C(C#N)(C#N)C(C#N)(C#N)C1
AC50 [6]: 0.734 µM (active)
AC50 [7]: 6.07 µM (active)
AC50 [8]: 2.05 µM (active)
AC50 [9]: 1.7 µM (active)
AC50 [11]: 3.08 µM (active)
